This passage reports concentration results from US8268836B2, “Compound useful as a c-Met inhibitor” (Eli Lilly and Company, priority 2010, dated 2012).

Structures are written as SMILES. Read-outs that look alike come from different tables or passages of the source.

The data set can be described thus: Plasma concentration in IVTI studies. The note with it: athymic nude, mouse, oral, 10% acacia. In kind it is in vivo. How it is done: In IVTI studies, each compound is administered orally and formulated in 10% w/v acacia. Mouse blood samples are collected with anti-coagulant (EDTA-purple top Vacutainer tube) post-dose using cardiac puncture techniques. Tubes are inverted for 3-5 times and are placed on ice until centrifugation at 3000 RPM (1800×g) for 10 min at 4° C. to obtain plasma. Aliquots of plasma are pipetted and stored in a clean 96 well plate. Plasma samples are stored immediately at −80° C. Shipments of plasma samples are packed in dry ice and samples are frozen at −80° C. until analysis.
A 0.1-mg/mL stock solution of each drug was prepared and is serially diluted into pooled mouse plasma to prepare standards ranging from 1 to 5000 ng/mL. Plasma standards or samples (0.025 mL) in 96-well plates are treated by protein precipitation with the addition of a 0.1-0.2 ml of methanol: acetonitrile (1/1, v/v) containing internal standard. […] Samples and standards are analyzed with a Sciex API 4000 Triple Quadrupole Mass Spectrometer (Sciex, Division of MDS Inc., Toronto, Canada) coupled to a Shimadzu HPLC System (LC-10AD, Shimadzu Corporation) and a Gilson 215 Autosampler. […] Quantitation is performed using multiple reaction monitoring (MRM) at the following transitions: Example 1 (m/z 363.05 to m/z 163.10) and the reference compound 20 (m/z 363.05 to m/z 163.10). […]

As for `Cn1cc(-c2ccc3nnc(Sc4ccc5nn(C)cc5c4)n3n2)cn1` [Example 1, 6-(1-Methyl-1H-pyrazol-4-yl)-3-(2-methyl-2H-indazol-5-ylthio)-[1,2,4]triazolo[4,3-b]pyridazine], the concentration at 8 h (8 mg/kg, read-out: Plasma conc. 8 mg/Kg after 8 h) stood at 141 ng/mL and the concentration at 8 h (20 mg/kg, read-out: Plasma conc. 20 mg/Kg after 8 h) turned out to be 318 ng/mL.
